Here are results for one molecule from patent US20240009170A1, “INHIBITION OF GLYCOGEN SYNTHASE KINASE-3 (GSK-3)” (Brown University, priority 2020, published 2024).

Common to all, as to format: cell-based, Human
Assay [1] has as its system HCT-116 colorectal cancer cells. The assay is described as follows: Co-culture of HCT-116 and TALL-104 cells with or without αPD-1 therapy. The note with it: compared with the other culture conditions. The method, then:
(§1) Immune cell co-culture experiments. Co-culture experiments were conducted with GFP+ SW480 or HCT-116 colorectal cancer cells and either NK-92 natural killer cells or TALL-104 T cells in a 48-well plate, in the presence or absence of 9-ING-41. HCT-116 cells were labeled using CellTracker™ Green CMFDA (5-chloromethylfluorescein diacetate), immune cells (NK-92, TALL-104) were labeled using CellTracker™ Blue CMAC Dye (7-amino-4-chloromethylcoumarin), and ethidium homodimer-1 (EthD-1) was used as a marker of cell death (Invitrogen, Thermo Fisher Scientific, Waltham, MA, USA).
9-ING-41 increases tumor cell death in combination with αPD-1 therapy in a co-culture of HCT-116 colorectal cancer cells and immune cells. The inventors were interested in the applicability of GS3K-3 inhibitors such as 9-ING-41 in combination with immune checkpoint blockade. The inventors next performed co-cultures of immune cells (TALL-104, NK-92) and tumor cells (HCT-116) in the presence or absence of 9-ING-41, as well as either pembrolizumab® or nivolumab®, two humanized monoclonal antibodies against PD-1. The inventors evaluated HCT-116 cells in this co-culture model to determine if the 9-ING-41-mediated increase in immune cell-mediated SW480 cell killing could be reproduced in another colorectal cancer cell line.

In a further assay the test system is SW480 tumor cells. The assay is described as follows: Co-culture of CD8+ donor-derived healthy T cells and SW480 tumor cells. How it is done: Isolation of donor derived CD8+ T cells. An Easy Step Human CD8+ T Cell Isolation Kit was used to isolated CD8+ T cells from a donor PBMC sample via negative selection (Cat #, 17913, Stem Cell Technologies, Vancouver, Canada).
as §1
TALL-104 cells are a human leukemic T cell line. […] Healthy CD8+ T cells were isolated from a donor blood sample consistent with an IRB-approved protocol. A co-culture of GFP+ SW480 tumor cells and Green CM FDA-labeled CD8+ donor-derived healthy T cells was then treated with 9-ING-41 and the % of dead cells out of total cells was quantified after twenty-four hours. […] The data was then normalized, as described earlier.
Pre-treatment with 9-ING-41 sensitizes SW480 tumor cells to immune cell-mediated cell killing. […]

The next assay relates to colorectal cancer cells. As to the kind of experiment: Co-culture with pre-treatment of effector or target cell population. The note with it: target cells pre-treated before co-culture. How it is done:
Co-culture experiments were conducted with GFP+ SW480 colorectal cancer cells and either NK-92 natural killer cells or TALL-104 T cells at various effector/target ratios in a 48-well plate, in the presence or absence of 9-ING-41. Follow-up experiments compared the effect of pre-treating either the effector or the target cell population with 9-ING-41 before the co-culture experiment was started.

A further assay relates to TALL-104. As to the kind of experiment: Flow cytometric analysis of cell surface markers, TALL-104. The note with it: compared to DMSO treatment alone. The method, then:
(§2) FIG. 12 is a set of bar graphs showing flow cytometric analyses of cell surface markers of tumor and immune cells treated with 9-ING-41 in vitro. FIG. 12(A) HCT-116, FIG. 12(B) HT-29, FIG. 12(C) TALL-104, and FIG. 12(D) NK-92 cells were treated with indicated concentrations of 9-ING-41 for forty-eight hours, stained for indicated cell surface marker expression, and analyzed with a BD LSRII. Statistical significance was determined using two-tailed unpaired T tests.
(§3) To further understand the differential 9-ING-41-mediated impacts on protein expression, the inventors treated tumor and immune cells in vitro with 9-ING-41, then performed a flow cytometric analysis for expression of cell surface markers. […] A similar trend occurred in HT-29 cells, although not statistically significant. […] FIG. 10(C). […] FIG. 10(D).
In general terms: A flow cytometer gives signals particle by particle.

In assay [2] the test system is HT-29 colorectal cancer cells. The assay is described as follows: Western blot analysis, HT-29. The method, then:
(§4) Western blot analysis. Cells were plated in a 6-well plate and incubated overnight before the spent media was replaced with drugged media. Drug treatment lasted for indicated durations. Protein was extracted using radioimmunoprecipitation (RIPA) assay buffer (Cat #R0278, Sigma-Aldrich, St. Louis, MO) containing cOmplete™ Mini, EDTA-free Protease Inhibitor Cocktail (Cat #4693159001, Roche, Basel, Switzerland). Denaturing sample buffer was added, samples were boiled at 95 degrees for 10 minutes. An equal amount of protein lysate was electrophoresed through NuPAGE™ 4 to 12%, Bis-Tris, 1.5 mm, Mini Protein Gels (Invitrogen, Waltham, MA, USA) then transferred to PVDF membranes. The PVDF membrane was blocked with 5% non-fat milk (Sigma-Aldrich, St. Louis, MO, USA) in 1× TTBS. Primary antibodies were incubated with the transferred PVDF membrane in blocking buffer at 4° C. overnight. Secondary antibodies used included goat anti-rabbit IgG (H+L) secondary antibody, HRP (Cat #31460, Invitrogen, Waltham, MA, USA) and goat anti-mouse IgG (H+L) secondary antibody, HRP (Cat #31430, Invitrogen, Waltham, MA, USA). Signal was detected using a Syngene Imaging System.
9-ING-41 treatment decreases survival factor expression while increasing PD-L1 levels in colorectal cancer cell lines. To elucidate the mechanism behind the differential effects of 9-ING-41 on either colorectal cancer or immune cells in co-culture and cytokine profiling assays, the inventors performed Western blot analyses on tumor and immune cells treated with 9-ING-41 over a 72-hour time course.
Treating cells from colorectal cancer cell lines with 1 μM 9-ING-41 decreases Surivin, NF-κB p65, and IκBα while increasing PD-L1 levels in, 9-ING-41 treatment of immune cells increases NIK. Western blot analysis of HCT-116 and HT-29 colorectal cancer cells for expression of indicated proteins after increasing durations of 9-ING-41 treatment (0-72 hours). Western blot analysis of TALL-104 T cells for expression of indicated proteins after increasing durations of 9-ING-41 treatment (0-72 hours). […]
A general note: Immunoblotting shows a protein as a band on a membrane.

A further assay concerns HCT-116. The assay is described as follows: Flow cytometric analysis of cell surface markers, HCT-116. The note with it: post-treatment. The method, then:
as §2, §3

The subject of assay [3] is NK-92 natural killer cells. The assay is described as follows: Western blot analysis of Mcl-1, NK-92. The note with it: through the 48-hour endpoint. The method, then: as §4
Treating cells from colorectal cancer cell lines with 1 μM 9-ING-41 decreases Surivin, NF-κB p65, and IκBα while increasing PD-L1 levels in, 9-ING-41 treatment of immune cells increases NIK. […]

With `Cn1cc(C2=C(c3coc4ccc(F)cc34)C(=O)NC2=O)c2cc3c(cc21)OCO3` [9-ING-41], in assay [1], the “cell death after twenty-four hours of co-culture with TALL-104” value is given as “even greater amount of cell death”. Also, in the assay on SW480 tumor cells (24 hours, normalized), the “tumor cell death in co-cultures with CD8+ donor-derived healthy T cells” value was “Even more impressive tumor cell death”. In addition, in the assay on SW480 tumor cells (pre-treatment of tumor cells, 24 hours of co-culture), the “tumor cell death after tumor cell pre-treatment, CD8+ T cells” value is given as “statistically significant increase in tumor cell death”. The “cell-killing after pre-treatment of the target tumor cells” value with colorectal cancer cells was “bolstered cell-killing”. Besides, the TRAIL expression entry in the assay on TALL-104 is given as “significant decreased”. The “IKKβ and Nik” value in assay [2] (0-72 hours) is given as “did not change”. Also, the PD-L1 result in assay [2] (as treatment duration increased) is listed as “increased”. The “Survivin, NF-KB, IKBα, pIKBα, and Bcl-2” value in assay [2] (by the 72-hour timepoint) is “decreased”. Also, in the assay with HCT-116, the DR5 expression entry is “significant decreased” and the ICAM-1 expression entry is reported as “significant increase”. Also, the “HLA-E and PD-L1 surface expression” value in the assay on HCT-116 (48 hours) is listed as “statistically significant increase”. In addition, in assay [3], the Mcl-1 protein expression entry was “did not observe a significant decrease”.
